The record followed here is patent US9670227B2, “Thienopyrimidine derivatives, a process for their preparation and pharmaceutical compositions containing them” (LES LABORATOIRES SERVIER, priority 2013, dated 2017).

Like-named read-outs stand apart in the source and are kept apart here.

One assay deals with Mcl-1 protein (UniProtKB primary accession number: Q07820) (Homo sapiens, UniProt Q07820). The assay is described as follows: Inhibition of Mcl-1 by fluorescence polarisation, Method 1. It is filed as binding. Conditions: read-out: IC50 (M) Mcl-1 FP. An outline of the steps:
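An 11-point DMSO dilution of compound is mixed with buffer (10 mM HEPES, 150 mM NaCl, 0.05% Tween 20, pH 7.4) carrying 1 nM fluorescein-labelled ligand and 5 nM Mcl-1, final concentrations. Displacement is monitored by fluorescence polarisation.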

Assay [1] concerns H929 multiple myeloma tumour line. Put plainly: In vitro cytotoxicity, Microculture Tetrazolium Assay. It is filed as cell-based. To be noted: H929 cells, 48 hours exposure, MTT, read-out: IC50 (μM) MTT H929. As to the method:
The cytotoxicity studies were carried out on the H929 multiple myeloma tumour line.
The cells are distributed onto microplates and exposed to the test compounds for 48 hours.

[2] abbreviates: fluorescence polarisation, Method 1, or Method 2.
[3] abbreviates: fluorescence polarisation test, Method 2 values are underlined in the patent (underlining not visible here).

Chain of Mcl-1 protein (Q07820 whole entry): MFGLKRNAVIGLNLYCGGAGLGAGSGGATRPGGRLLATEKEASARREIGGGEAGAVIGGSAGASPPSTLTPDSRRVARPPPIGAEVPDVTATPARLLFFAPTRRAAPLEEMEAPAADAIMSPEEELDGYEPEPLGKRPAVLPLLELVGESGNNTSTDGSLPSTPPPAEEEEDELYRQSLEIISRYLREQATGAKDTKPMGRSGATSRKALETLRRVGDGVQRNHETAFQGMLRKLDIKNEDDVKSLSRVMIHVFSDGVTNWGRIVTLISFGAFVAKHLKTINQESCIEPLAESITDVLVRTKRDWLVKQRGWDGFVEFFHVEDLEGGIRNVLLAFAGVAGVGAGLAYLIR

As for `CCOc1cccc(-c2sc3ncnc(OC(Cc4ccccc4OC)C(=O)O)c3c2-c2ccc(OCCN3CCN(C)CC3)c(Cl)c2C)c1` [Example 557, (2R)-2-{[(5Sa)-5-{3-chloro-2-methyl-4-[2-(4-methylpiperazin-1-yl)ethoxy]phenyl}-6-(3-ethoxyphenyl)thieno[2,3-d]pyrimidin-4-yl]oxy}-3-(2-methoxyphenyl)propanoic acid], the IC50 at Mcl-1 protein (setting [2]) turned out to be 4.5e-09 M; in assay [1] (Homo sapiens, NCI-H929, 48 h) it was 0.475 µM.

On to `CCCCn1nccc1COc1ccccc1CC(Oc1ncnc2sc(-c3ccc(OCCN4CCOCC4)nc3)c(-c3ccc(OCCN4CCN(C)CC4)c(Cl)c3C)c12)C(=O)O` [Example 621, (2R)-3-{2-[(1-butyl-1H-pyrazol-5-yl)methoxy]phenyl}-2-[((5Sa)-5-{3-chloro-2-methyl-4-[2-(4-methylpiperazin-1-yl)ethoxy]phenyl}-6-{6-[2-(morpholin-4-yl)ethoxy]pyridin-3-yl}thieno[2,3-d]pyrimidin-4-yl)oxy]propanoic acid], for which the IC50 was 5.3e-09 M on Mcl-1 protein (setting [2]) and 0.095 µM in assay [1] (Homo sapiens, NCI-H929, 48 h).

`Cc1c(-c2c(-c3ccc(F)o3)sc3ncnc(OC(Cc4ccccc4OCCO)C(=O)O)c23)ccc(OCCN2CCN(C)CC2)c1Cl` [Example 193, (2R)-2-{[(5Sa)-5-{3-chloro-2-methyl-4-[2-(4-methylpiperazin-1-yl)ethoxy]phenyl}-6-(5-fluorofuran-2-yl)thieno[2,3-d]pyrimidin-4-yl]oxy}-3-[2-(2-hydroxyethoxy)phenyl]propanoic acid]: the IC50 on Mcl-1 protein (setting [3]) amounted to 5.4e-09 M; in assay [1] (Homo sapiens, NCI-H929, 48 h) it was 0.116 µM.

As to `CCCCn1nccc1COc1ccccc1CC(Oc1ncnc2sc(-c3ccc(F)nc3)c(-c3ccc(OCCN4CCN(C)CC4)c(Cl)c3C)c12)C(=O)O` [Example 607, (2R)-3-{2-[(1-butyl-1H-pyrazol-5-yl)methoxy]phenyl}-2-{[(5Sa)-5-{3-chloro-2-methyl-4-[2-(4-methylpiperazin-1-yl)ethoxy]phenyl}-6-(6-fluoropyridin-3-yl)thieno[2,3-d]pyrimidin-4-yl]oxy}propanoic acid], the IC50 on Mcl-1 protein (setting [2]) amounted to 3.5e-09 M; in assay [1] (Homo sapiens, NCI-H929, 48 h), 0.04 µM.

Regarding `Cc1nccc(COc2ccccc2CC(Oc2ncnc3sc(-c4ccco4)c(-c4ccc(OCCN5CCN(C)CC5)c(Cl)c4C)c23)C(=O)O)n1` [Example 247, (2R)-2-{[(5Sa)-5-{3-chloro-2-methyl-4-[2-(4-methylpiperazin-1-yl)ethoxy]phenyl}-6-(furan-2-yl)thieno[2,3-d]pyrimidin-4-yl]oxy}-3-{2-[(2-methylpyrimidin-4-yl)methoxy]phenyl}propanoic acid], the IC50 on Mcl-1 protein (setting [3]) was determined as 8e-09 M; in assay [1] (Homo sapiens, NCI-H929, 48 h) it was 0.022 µM.

As to `Cc1c(-c2c(-c3ccc(F)cc3)sc3ncnc(OC(Cc4ccccc4OCc4ccnc(-c5ccc(Cl)nc5)n4)C(=O)O)c23)ccc(OCCN2CCN(C)CC2)c1Cl` [Example 110, (2R)-2-{[(5Sa)-5-{3-chloro-2-methyl-4-[2-(4-methylpiperazin-1-yl)ethoxy]phenyl}-6-(4-fluorophenyl)thieno[2,3-d]pyrimidin-4-yl]oxy}-3-(2-{[2-(6-chloropyridin-3-yl)pyrimidin-4-yl]methoxy}phenyl)propanoic acid], the IC50 at Mcl-1 protein (setting [3]) was 4.3e-09 M; in assay [1] (Homo sapiens, NCI-H929, 48 h), 0.022 µM.

For the compound `Cc1c(-c2c(-c3ccco3)sc3ncnc(OC(Cc4ccccc4OCc4ccc(Cl)cn4)C(=O)O)c23)ccc(OCCN2CCN(C)CC2)c1Cl` [Example 231, (2R)-2-{[(5Sa)-5-{3-chloro-2-methyl-4-[2-(4-methylpiperazin-1-yl)ethoxy]phenyl}-6-(furan-2-yl)thieno[2,3-d]pyrimidin-4-yl]oxy}-3-{2-[(5-chloropyridin-2-yl)methoxy]phenyl}propanoic acid], the 50% inhibitory concentration (IC50) is 1e-08 M at Mcl-1 protein (setting [3]) and 0.116 µM in assay [1] (Homo sapiens, NCI-H929, 48 h).

For `Cc1c(-c2c(-c3ccc(F)cc3)sc3ncnc(OC(Cc4ccccc4OCc4cncnc4)C(=O)O)c23)ccc(OCCN2CCN(C)CC2)c1Cl` [Example 93, (2R)-2-{[(5Sa)-5-{3-chloro-2-methyl-4-[2-(4-methylpiperazin-1-yl)ethoxy]phenyl}-6-(4-fluorophenyl)thieno[2,3-d]pyrimidin-4-yl]oxy}-3-[2-(pyrimidin-5-ylmethoxy)phenyl]propanoic acid], the half-maximal inhibitory concentration (IC50) at Mcl-1 protein (setting [3]) turned out to be 1.4e-08 M; in assay [1] (Homo sapiens, NCI-H929, 48 h), 0.087 µM.

In the case of `Cc1c(-c2c(-c3ccc(F)o3)sc3ncnc(OC(Cc4ccccc4OCc4ccnc(-c5ccsc5)n4)C(=O)O)c23)ccc(OCCN2CCN(C)CC2)c1Cl` [Example 173, (2R)-2-{[(5Sa)-5-{3-chloro-2-methyl-4-[2-(4-methylpiperazin-1-yl)ethoxy]phenyl}-6-(5-fluorofuran-2-yl)thieno[2,3-d]pyrimidin-4-yl]oxy}-3-(2-{[2-(thiophen-3-yl)pyrimidin-4-yl]methoxy}phenyl)propanoic acid], the IC50 at Mcl-1 protein (setting [3]) came out at 3.1e-09 M; in assay [1] (Homo sapiens, NCI-H929, 48 h), 0.004 µM.

With `Cc1c(-c2c(-c3ccc(F)o3)sc3ncnc(OC(Cc4ccccc4OCc4cncnc4)C(=O)O)c23)ccc(OCCN2CCN(C)CC2)c1Cl` [Example 190, (2R)-2-{[(5Sa)-5-{3-chloro-2-methyl-4-[2-(4-methylpiperazin-1-yl)ethoxy]phenyl}-6-(5-fluorofuran-2-yl)thieno[2,3-d]pyrimidin-4-yl]oxy}-3-[2-(pyrimidin-5-ylmethoxy)phenyl]propanoic acid], the IC50 at Mcl-1 protein (setting [3]) worked out at 7.5e-09 M; in assay [1] (Homo sapiens, NCI-H929, 48 h), 0.037 µM.

As for `Cc1c(-c2c(-c3ccc(F)cc3)sc3ncnc(OC(Cc4ccccc4OCc4ccnc(-c5ccnc(Cl)c5)n4)C(=O)O)c23)ccc(OCCN2CCN(C)CC2)c1Cl` [Example 119, (2R)-2-{[(5Sa)-5-{3-chloro-2-methyl-4-[2-(4-methylpiperazin-1-yl)ethoxy]phenyl}-6-(4-fluorophenyl)thieno[2,3-d]pyrimidin-4-yl]oxy}-3-(2-{[2-(2-chloropyridin-4-yl)pyrimidin-4-yl]methoxy}phenyl)propanoic acid], the IC50 at Mcl-1 protein (setting [3]) amounted to 4.8e-09 M; in assay [1] (Homo sapiens, NCI-H929, 48 h), 0.02 µM.

In the case of `CCOCCn1nccc1COc1ccccc1CC(Oc1ncnc2sc(-c3ccc(F)cc3)c(-c3ccc(OCCN(C)C)c(Cl)c3C)c12)C(=O)O` [Example 754, (2R)-2-{[(5Sa)-5-{3-chloro-4-[2-(dimethylamino)ethoxy]-2-methylphenyl}-6-(4-fluorophenyl)thieno[2,3-d]pyrimidin-4-yl]oxy}-3-(2-{[1-(2-ethoxyethyl)-1H-pyrazol-5-yl]methoxy}phenyl)propanoic acid], the IC50 at Mcl-1 protein (setting [2]) was found to be 4.7e-09 M; in assay [1] (Homo sapiens, NCI-H929, 48 h) it was 0.089 µM.

Turning to `Cc1c(-c2c(-c3ccco3)sc3ncnc(OC(Cc4ccccc4OCc4ccnn4C)C(=O)O)c23)ccc(OCCN(C)C)c1Cl` [Example 668, (2R)-2-{[(5Sa)-5-{3-chloro-4-[2-(dimethylamino)ethoxy]-2-methylphenyl}-6-(furan-2-yl)thieno[2,3-d]pyrimidin-4-yl]oxy}-3-{2-[(1-methyl-1H-pyrazol-5-yl)methoxy]phenyl}propanoic acid], the IC50 at Mcl-1 protein (setting [2]) amounted to 1.1e-08 M; in assay [1] (Homo sapiens, NCI-H929, 48 h), 0.13 µM.

Take `CCc1sc2ncnc(OC(Cc3ccccc3)C(=O)O)c2c1-c1ccc(OCC(=O)N2CCOCC2)c(Cl)c1C` [Example 393, (2R)-2-[((5Sa)-5-{3-chloro-2-methyl-4-[2-(morpholin-4-yl)-2-oxoethoxy]phenyl}-6-ethylthieno[2,3-d]pyrimidin-4-yl)oxy]-3-phenylpropanoic acid]: the IC50 at Mcl-1 protein (setting [2]) was determined as 4.1e-08 M; in assay [1] (Homo sapiens, NCI-H929, 48 h), 16.6 µM.

In the case of `Cc1c(-c2c(-c3ccc(F)o3)sc3ncnc(OC(Cc4ccccc4OCc4ccnc(C(F)(F)F)n4)C(=O)O)c23)ccc(OCCN2CCN(C)CC2)c1Cl` [Example 169, (2R)-2-{[(5Sa)-5-{3-chloro-2-methyl-4-[2-(4-methylpiperazin-1-yl)ethoxy]phenyl}-6-(5-fluorofuran-2-yl)thieno[2,3-d]pyrimidin-4-yl]oxy}-3-(2-{[2-(trifluoromethyl)pyrimidin-4-yl]methoxy}phenyl)propanoic acid], the concentration for half-maximal inhibition (IC50) amounted to 9e-09 M on Mcl-1 protein (setting [3]) and 0.009 µM in assay [1] (Homo sapiens, NCI-H929, 48 h).

As for `Cc1c(-c2c(-c3ccc(F)cc3)sc3ncnc(OC(Cc4ccccc4OCc4cnccn4)C(=O)O)c23)ccc(OC2CCCN(C)C2)c1Cl` (single isomer, unassigned) [Example 142, (2R)-2-{[(5Sa)-5-{3-chloro-2-methyl-4-[((3R or S)-1-methylpiperidin-3-yl)oxy]phenyl}-6-(4-fluorophenyl)thieno[2,3-d]pyrimidin-4-yl]oxy}-3-[2-(pyrazin-2-ylmethoxy)phenyl]propanoic acid], the IC50 at Mcl-1 protein (setting [3]) turned out to be 4.2e-08 M; in assay [1], 1.67 µM.

Turning to `COc1cnc(COc2ccccc2CC(Oc2ncnc3sc(-c4ccco4)c(-c4ccc(OCCN5CCN(C)CC5)c(Cl)c4C)c23)C(=O)O)cn1` [Example 270, (2R)-2-{[(5Sa)-5-{3-chloro-2-methyl-4-[2-(4-methylpiperazin-1-yl)ethoxy]phenyl}-6-(furan-2-yl)thieno[2,3-d]pyrimidin-4-yl]oxy}-3-{2-[(5-methoxypyrazin-2-yl)methoxy]phenyl}propanoic acid], the IC50 at Mcl-1 protein (setting [3]) is 1.2e-08 M; in assay [1] (Homo sapiens, NCI-H929, 48 h) it was 0.068 µM.

Consider `Cc1cscc1-c1nccc(COc2ccccc2CC(Oc2ncnc3sc(-c4ccc(F)cc4)c(-c4ccc(OCCN5CCN(C)CC5)c(Cl)c4C)c23)C(=O)O)n1` [Example 124, (2R)-2-{[(5Sa)-5-{3-chloro-2-methyl-4-[2-(4-methylpiperazin-1-yl)ethoxy]phenyl}-6-(4-fluorophenyl)thieno[2,3-d]pyrimidin-4-yl]oxy}-3-(2-{[2-(4-methylthiophen-3-yl)pyrimidin-4-yl]methoxy}phenyl)propanoic acid], for which the IC50 at Mcl-1 protein (setting [3]) stood at 4.3e-09 M; in assay [1] (Homo sapiens, NCI-H929, 48 h), 0.024 µM.
